Measured values published in ChEMBL document CHEMBL3526078, “Pharmacokinetics and hepatic uptake of eltrombopag, a novel platelet-increasing agent” (Drug Metab Dispos, 2011).

What was measured:
[1] = Maximum plasma concentration in mouse at 1 mg/kg, iv; format: ADME, organism-based; parameters: dose 1 mg/kg, route intravenous
Liver [2] = test: Drug uptake in mouse liver at 1 mg/kg, iv in presence of rifampicin OATP inhibitor; format: ADME, organism-based; parameters: dose 1 mg/kg, route intravenous; conditions: in vivo
[3] = Total clearance in wild-type mouse at 1 mg/kg, iv; format: ADME, organism-based; parameters: dose 1 mg/kg, route intravenous; conditions: in vivo
[4] = Total clearance in pdzk1(-/-) mouse at 1 mg/kg, iv; format: ADME, organism-based; parameters: dose 1 mg/kg, route intravenous; conditions: in vivo
[5] = molecular target: T1, Solute carrier organic anion transporter family member 1B1 (Homo sapiens, UniProt Q9Y6L6); test: Inhibition of OATP1B1-mediated [3H]estrone-3-sulfate uptake in human OATP1B1 expressing HEK293/PDZK1 cells by scintillation counting; format: ADME, cell-based
T1 sequence (Q9Y6L6 whole entry): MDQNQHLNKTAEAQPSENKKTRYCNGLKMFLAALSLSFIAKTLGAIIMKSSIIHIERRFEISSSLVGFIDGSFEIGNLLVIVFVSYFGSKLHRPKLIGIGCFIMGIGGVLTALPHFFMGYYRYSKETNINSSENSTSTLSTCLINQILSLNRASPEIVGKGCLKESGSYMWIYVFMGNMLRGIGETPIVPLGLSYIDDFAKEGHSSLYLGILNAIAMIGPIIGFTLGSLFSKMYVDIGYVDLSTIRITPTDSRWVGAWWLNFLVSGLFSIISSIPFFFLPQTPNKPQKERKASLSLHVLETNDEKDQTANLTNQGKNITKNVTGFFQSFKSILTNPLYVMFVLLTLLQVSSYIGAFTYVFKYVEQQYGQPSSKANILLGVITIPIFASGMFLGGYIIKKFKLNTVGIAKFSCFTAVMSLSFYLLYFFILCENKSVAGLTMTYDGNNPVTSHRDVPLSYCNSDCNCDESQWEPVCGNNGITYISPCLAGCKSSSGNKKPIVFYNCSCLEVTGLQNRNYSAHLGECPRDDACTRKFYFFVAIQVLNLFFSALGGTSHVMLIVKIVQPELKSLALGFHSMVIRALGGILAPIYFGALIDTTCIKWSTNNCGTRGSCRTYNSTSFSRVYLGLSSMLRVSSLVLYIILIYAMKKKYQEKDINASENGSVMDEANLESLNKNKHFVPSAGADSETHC

[6] = molecular target: T2, Solute carrier organic anion transporter family member 2B1 (Homo sapiens, UniProt O94956); test: Inhibition of OATP2B1-mediated [3H]estrone-3-sulfate uptake in human OATP2B1 expressing HEK293/PDZK1 cells by scintillation counting; format: ADME, cell-based
T2 sequence (O94956 whole entry): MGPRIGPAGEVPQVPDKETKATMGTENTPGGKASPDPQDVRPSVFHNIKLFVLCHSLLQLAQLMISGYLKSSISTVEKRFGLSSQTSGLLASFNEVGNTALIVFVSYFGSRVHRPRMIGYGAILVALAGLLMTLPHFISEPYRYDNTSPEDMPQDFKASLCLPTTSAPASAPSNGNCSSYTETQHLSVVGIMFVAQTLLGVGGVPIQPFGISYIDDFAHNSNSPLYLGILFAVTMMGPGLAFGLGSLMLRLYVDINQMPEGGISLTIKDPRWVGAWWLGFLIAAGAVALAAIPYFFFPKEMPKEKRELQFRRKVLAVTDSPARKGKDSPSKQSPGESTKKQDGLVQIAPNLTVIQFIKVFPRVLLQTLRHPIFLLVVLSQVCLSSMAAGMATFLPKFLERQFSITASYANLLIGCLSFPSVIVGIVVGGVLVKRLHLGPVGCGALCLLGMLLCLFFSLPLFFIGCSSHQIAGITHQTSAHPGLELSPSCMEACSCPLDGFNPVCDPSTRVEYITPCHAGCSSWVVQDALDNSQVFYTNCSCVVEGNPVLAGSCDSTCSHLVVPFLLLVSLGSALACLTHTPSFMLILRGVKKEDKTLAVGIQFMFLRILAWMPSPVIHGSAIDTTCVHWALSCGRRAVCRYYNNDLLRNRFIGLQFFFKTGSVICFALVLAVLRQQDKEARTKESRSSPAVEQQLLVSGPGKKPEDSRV

[7] = molecular target: T3, Solute carrier organic anion transporter family member 1B3 (Homo sapiens, UniProt Q9NPD5); test: Inhibition of OATP1B3-mediated [3H]estradiol 17beta-glucuronide uptake in human OATP1B3 expressing HEK293/PDZK1 cells by scintillation counting; format: ADME, cell-based
T3 sequence (Q9NPD5 whole entry): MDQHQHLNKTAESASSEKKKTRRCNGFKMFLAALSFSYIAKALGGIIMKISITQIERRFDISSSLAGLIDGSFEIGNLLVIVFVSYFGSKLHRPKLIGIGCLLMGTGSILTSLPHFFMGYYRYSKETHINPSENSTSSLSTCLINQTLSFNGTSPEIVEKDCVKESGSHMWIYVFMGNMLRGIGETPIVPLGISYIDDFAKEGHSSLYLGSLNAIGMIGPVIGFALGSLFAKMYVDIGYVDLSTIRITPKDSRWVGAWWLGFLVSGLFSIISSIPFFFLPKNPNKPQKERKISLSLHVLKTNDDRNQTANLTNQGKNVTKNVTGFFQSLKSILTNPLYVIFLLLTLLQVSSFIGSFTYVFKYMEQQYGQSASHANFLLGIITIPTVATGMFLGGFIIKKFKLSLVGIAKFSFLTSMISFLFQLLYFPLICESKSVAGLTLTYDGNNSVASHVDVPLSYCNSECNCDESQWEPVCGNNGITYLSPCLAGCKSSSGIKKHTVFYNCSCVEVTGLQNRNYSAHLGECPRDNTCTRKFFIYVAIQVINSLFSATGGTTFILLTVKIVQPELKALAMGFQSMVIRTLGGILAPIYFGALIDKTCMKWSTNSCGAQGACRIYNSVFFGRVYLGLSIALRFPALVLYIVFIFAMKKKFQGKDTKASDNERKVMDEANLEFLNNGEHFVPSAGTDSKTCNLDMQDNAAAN

[8] = molecular target: T4, Solute carrier family 22 member 1 (Homo sapiens, UniProt O15245); test: Inhibition of OCT1-mediated [14C]tetraethylammonium uptake in human OCT1 expressing HEK293/PDZK1 cells by scintillation counting; format: ADME, cell-based
T4 sequence (O15245 whole entry): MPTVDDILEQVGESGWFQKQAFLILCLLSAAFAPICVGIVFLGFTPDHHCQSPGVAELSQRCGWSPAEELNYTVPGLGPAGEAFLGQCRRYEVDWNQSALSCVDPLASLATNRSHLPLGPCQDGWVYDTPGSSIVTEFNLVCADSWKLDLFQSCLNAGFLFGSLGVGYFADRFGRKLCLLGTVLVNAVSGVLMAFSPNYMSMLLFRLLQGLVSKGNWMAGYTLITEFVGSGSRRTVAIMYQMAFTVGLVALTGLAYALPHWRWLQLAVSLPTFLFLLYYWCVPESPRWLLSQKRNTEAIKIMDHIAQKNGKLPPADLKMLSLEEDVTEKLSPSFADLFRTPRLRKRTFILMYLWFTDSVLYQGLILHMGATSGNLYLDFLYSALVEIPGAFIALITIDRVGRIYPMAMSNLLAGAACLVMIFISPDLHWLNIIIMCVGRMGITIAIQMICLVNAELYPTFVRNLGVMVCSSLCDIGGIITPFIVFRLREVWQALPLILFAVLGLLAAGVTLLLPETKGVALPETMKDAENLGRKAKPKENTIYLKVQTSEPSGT

[9] = molecular target: T5, Organic cation/carnitine transporter 2 (Homo sapiens, UniProt O76082); test: Inhibition of OCTN2-mediated [14C]carnitine uptake in human OCTN2 expressing HEK293/PDZK1 cells by scintillation counting; format: cell-based
T5 sequence (O76082 whole entry): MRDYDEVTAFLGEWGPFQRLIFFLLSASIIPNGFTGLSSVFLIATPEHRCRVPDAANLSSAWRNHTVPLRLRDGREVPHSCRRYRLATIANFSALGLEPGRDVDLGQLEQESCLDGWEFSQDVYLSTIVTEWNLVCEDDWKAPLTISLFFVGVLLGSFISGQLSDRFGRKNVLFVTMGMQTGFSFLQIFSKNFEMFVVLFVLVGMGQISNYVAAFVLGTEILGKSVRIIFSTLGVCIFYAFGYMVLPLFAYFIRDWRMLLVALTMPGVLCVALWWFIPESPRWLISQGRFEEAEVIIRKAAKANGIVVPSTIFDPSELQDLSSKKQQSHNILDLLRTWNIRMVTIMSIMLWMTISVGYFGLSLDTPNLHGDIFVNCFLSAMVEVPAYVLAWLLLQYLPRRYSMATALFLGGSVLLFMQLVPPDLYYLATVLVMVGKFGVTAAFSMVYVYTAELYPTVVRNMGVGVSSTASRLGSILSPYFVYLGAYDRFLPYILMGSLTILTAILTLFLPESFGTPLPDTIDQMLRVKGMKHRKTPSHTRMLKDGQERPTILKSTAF

[10] = Drug metabolism in human feces assessed as oxidized metabolites at 50 mg, po single dose; format: ADME, organism-based; conditions: in vivo
[11] = Drug metabolism in human urine assessed as oxidized metabolites at 50 mg, po single dose; format: ADME, organism-based; conditions: in vivo
[12] = Drug excretion in Sprague-Dawley rat bile assessed as unchanged compound level at 1 mg/kg, iv for 72 hrs; format: ADME, organism-based; parameters: dose 1 mg/kg, route intravenous; conditions: read-out: Drug excretion
[13] = Drug excretion in Sprague-Dawley rat urine assessed as unchanged compound level at 1 mg/kg, iv for 72 hrs; format: ADME, organism-based; parameters: dose 1 mg/kg, route intravenous; conditions: read-out: Drug excretion
[14] = Total clearance in bile duct cannulated Sprague-Dawley rat at 1 mg/kg, iv; format: ADME, organism-based; parameters: dose 1 mg/kg, route intravenous; conditions: in vivo
Liver [15] = test: Drug uptake in mouse liver at 1 mg/kg, iv in presence of 30 umol/kg TPeA; format: ADME, organism-based; parameters: dose 1 mg/kg, route intravenous; conditions: in vivo
Liver [16] = test: Tissue uptake clearance in bile duct cannulated Sprague-Dawley rat liver at 1 mg/kg, iv by integration plot analysis; format: ADME, organism-based; parameters: dose 1 mg/kg, route intravenous; conditions: in vivo
Kidney [17] = test: Drug uptake in mouse kidney at 1 mg/kg, iv in presence of 20 mg/kg OATP inhibitor rifampicin; format: ADME, organism-based; conditions: in vivo
Kidney [18] = test: Drug uptake in mouse kidney at 1 mg/kg, iv in presence of 30 umol/kg TPeA; format: ADME, organism-based; parameters: dose 1 mg/kg, route intravenous; conditions: in vivo
Liver [19] = conditions: rat, in vivo, iv, 1 mg/kg

- Cmax [1]: 40 µM
- Drug uptake (Liver [2]): Not Active
- clearance [3]: 1.29 mL/min/kg
- clearance [4]: 0.92 mL/min/kg
- Ki [5]: 14.9 µM
- inhibition (INH) ([5]; human, hek293/pdzk1): Active
- Ki [6]: 8.48 µM
- inhibition (INH) ([6]; human, hek293/pdzk1): Active
- Ki [7]: 25.6 µM
- inhibition (INH) ([7]; human, hek293/pdzk1): Active
- Ki [8]: 103 µM
- inhibition (INH) ([8]; human, hek293/pdzk1): Active
- inhibition (INH) [9]: Not Active
- Drug excretion [10]: 59%
- Drug excretion [11]: 31%
- dose excreted at 72 h [12]: 40%
- dose excreted at 72 h [13]: < 0.02%
- clearance [14]: 0.572 mL/min/kg
- Drug uptake (Liver [15]): Not Active
- CLup (Liver [16]): 0.747 mL/min/kg
- Drug uptake (Kidney [17]): Active
- Drug uptake (Kidney [18]): Active
- CLup (Liver [19]): 0.38 mL/min/kg
SMILES: CC1=NN(c2ccc(C)c(C)c2)C(=O)/C1=N\Nc1cccc(-c2cccc(C(=O)O)c2)c1O [ELTROMBOPAG]
